Source: patent US20220378691A1, “Cosmetic composition comprising fermented product of Nuruk” (DAEBONG LS, LTD, priority 2021, published 2022)

Experiment: Antioxidant effect: DPPH free radical scavenging test
Settings: treatment concentration 0.0005%; positive control
Procedure: The following assay test method was performed by applying the decrease in absorbance at 517 nm wavelength. […] After leaving the prepared sample at room temperature for 15 minutes, absorbance was measured at a wavelength of a 517 nm using a microplate reader. […] In addition, the positive control of this experimental example was prepared by mixing 1 ml of ascorbic acid (10 ppm) solution diluted in methanol and 1 ml of DPPH.

O=C1O[C@H]([C@@H](O)CO)C(O)=C1O [Ascorbic acid, ascorbic acid]
DPPF radical scavenging activity: 91.36 ± 0.13%
